# Measured values from US20210283198A1, “METHOD FOR TREATING AND/OR PREVENTING COCCIDIOSIS” (priority 2020, published 2021).
# Marks after values point to notes of the source that are not given here. *1 amine or outer side, *2 acyl side, *3 side chain or, on linkers, in order; H or OH if unused. Where a SMILES comes first, the peptide text is derived from it. Bridges are numbered along the chain shown (N, C = ends). [ ]: non-standard residue; d: D form. X1 = CC(C)CCCCCCCCC[C@H](CC(=O)[*:1])O[*:2]
# Tested on: Eimeria tenella oocyst
# Assay: In vitro sporulation of the coccidia oocyst in 2% K2Cr2O7
# Format: cell-based
# Details: 100 ppm, 25° C., 10^4 oocysts/mL, mean ± SD (n = 3)
# Protocol: Intestinal samples from naturally infected broilers were obtained from poultry farms. Un-sporulated oocysts were obtained from the cecal contents of broilers at day 8 post-infection. Oocyst sporulation was conducted in an aqueous solution of 2% potassium dichromate (K2Cr2O7) with or without surfactin standard or the Bacillus licheniformis-fermented product-derived surfactin C-form for 72 h at 25° C. (10^4 oocysts/mL). Sporulated and non-sporulated oocysts were counted and the percentage of sporulation was estimated by counting the number of sporulated oocysts in a total of 100 oocysts by microscopic observation. Second-generation merozoites were collected from ceca at 110 h post-infection from chickens that had been inoculated with 1×10^5 sporulated oocysts per bird. The merozoites (10^4/mL) were treated with or without surfactin standard or the Bacillus licheniformis-fermented product-derived surfactin C-form for 1 h at 37° C. Three groups of merozoites were prepared, including: (1) a control group comprising 10^4/ml merozoites without surfactin; (2) an experimental group comprising 10^4/ml merozoites treated with 100 ppm surfactin standard; and (3) an experimental group comprising 10^4/ml merozoites treated with the 100 ppm Bacillus licheniformis-fermented product-derived surfactin C-form. After incubation, propidium iodide was added to each well and then stained at 37° C. for 30 min in the dark. The stained samples were examined under a confocal laser-scanning microscope (ZEISS LSM800, Jena, Germany). The percentage of death of merozoite was determined by counting the number of dead merozoite in a total of 100 merozoites. The Eimeria sporozoites from vaccine were treated with different surfacitn for 1 h at 37° C. (10^6 sporozoites/mL). The sporozoites were fixed with 2.5% glutaraldehyde in 50 mM potassium phosphate buffer (pH 6.8) overnight at 4° C., and then washed three times with 50 mM potassium phosphate buffer (pH 6.8). Dehydration was performed in different concentrations of ethanol (35-100%) for 10 mM each and the samples were dried in a critical point drier (CPD 030, Bal-Tec AG, Balzers, Liechtenstein). Specimens were coated under vacuum with gold:palladium (60:40) in a sputter coater (Bal-Tec AG, Balzers, Liechtenstein), and examined using a scanning electron microscope (JSM-6300, JEOL Ltd., Tokyo, JAPAN). […]
smiles,measurement,setting,value
"CC(C)CCCCCCCCC[C@@H]1CC(=O)N[C@@H](CCC(=O)O)C(=O)N[C@@H](CC(C)C)C(=O)N[C@H](CC(C)C)C(=O)N[C@@H](C(C)C)C(=O)N[C@@H](CC(=O)O)C(=O)N[C@H](CC(C)C)C(=O)N[C@@H](CC(C)C)C(=O)O1 [surfactin standard, surfactin] (EL[dL]VD[dL]L; linker N-C via X1)",Sporulation of the coccidia oocyst (%),12 h,0%
same,Sporulation of the coccidia oocyst (%),24 h,0%
same,Sporulation of the coccidia oocyst (%),48 h,0^b %
same,Sporulation of the coccidia oocyst (%),72 h,0^b %
